Measurements from article PMC10535379 (Viruses, 2023).
Entries after “also recorded” stand apart in the source; their conditions may differ. Where a name gives a salt, the structure may show the parent alone. Read-outs that look alike come from different tables or passages of the source.

How the values were obtained:
in vitro = settings: hamster
FMDV serotype A (NP05) [1] = test system: FMDV serotype A (NP05)
FMDV serotype A (NP05) [2] = test: microbe, parasite or virus in culture; format: cell-based, foot-and-mouth disease virus; settings: for EC50: Foot-and-mouth disease virus, BHK-21, read-out: EC50 Pre-Treatment
FMDV serotype A (NP05) [3] = test: microbe, parasite or virus in culture; format: cell-based, foot-and-mouth disease virus; settings: for EC50: Foot-and-mouth disease virus, BHK-21, read-out: EC50 Co-Treatment
FMDV serotype A (NP05) [4] = format: cell-based, foot-and-mouth disease virus; settings: for Virucidal effect: 50 µM, 0 min
Saccharomyces cerevisiae = settings: cited from earlier work
[5] = test system: Schizosaccharomyces pombe; settings: cited from earlier work
BHK-21 cells = settings: hamster
FMDV 3Cpro = FMDV 3Cpro (Foot-and-mouth disease virus, UniProt P03306); test: cell-based
FMDV serotype A (NP05) [6] = format: cell-based, foot-and-mouth disease virus
FMDV serotype A (NP05) [7] = test: microbe, parasite or virus in culture; settings: Foot-and-mouth disease virus, BHK-21, read-out: EC50 Post Entry
FMDV serotype A (NP05) [8] = format: cell-based, foot-and-mouth disease virus; remark: listed apart in the source
FMDV serotype A (NP05) [9] = test: in vitro; settings: hamster
HEK-293T cells = settings: human
FMDV = settings: cited from earlier work
[10] = test system: human respiratory syncytial virus (RSV); settings: read-out: IC50 against RSV; cited from earlier work
HEP-2 cells = settings: human; cited from earlier work
carboxypeptidase B = settings: cited from earlier work
[11] = HEK-293T, read-out: Inhibition of FMDV 3Cpro

Sequence of FMDV 3Cpro (P03306 1650-1862 limits assumed): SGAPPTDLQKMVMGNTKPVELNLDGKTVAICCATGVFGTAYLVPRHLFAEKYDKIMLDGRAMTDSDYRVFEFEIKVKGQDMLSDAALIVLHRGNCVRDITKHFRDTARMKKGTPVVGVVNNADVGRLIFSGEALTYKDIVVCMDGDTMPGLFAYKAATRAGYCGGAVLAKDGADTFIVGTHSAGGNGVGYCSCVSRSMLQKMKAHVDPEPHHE

With COc1cc(/C=N/Nc2nc3c([nH]2)c(=O)n(C)c(=O)n3C)ccc1O [NSC64672, 8-[(2E)-2-[(4-hydroxy-3-methoxyphenyl)methylidene]hydrazinyl]-1,3-dimethyl-7H-purine-2,6-dione] the CC50 (in vitro) was 130 ± 2.3 µM, the “EC50 Post Entry” value (FMDV serotype A (NP05) [1]) was “I” and the “EC50 Pre-Treatment” value (FMDV serotype A (NP05) [2]) was “I”. The “EC50 Co-Treatment” value (FMDV serotype A (NP05) [3]) was “I”.
For Cc1ccc([N+](=O)[O-])cc1NC(=O)c1cccc([N+](=O)[O-])c1O [NSC79451, 2-Hydroxy-N-(2-methyl-5-nitrophenyl)-3-nitrobenzamide], the CC50 (in vitro) was 32.79 ± 0.3 µM, the Virucidal effect (FMDV serotype A (NP05) [4]) was “good inhibition at 0 min” and the “EC50 Pre-Treatment” value (FMDV serotype A (NP05) [2]) was “I”. The EC50 (FMDV serotype A (NP05) [3]) was 1.56 ± 0.03 µM, the “Inhibition of Saccharomyces cerevisiae” value (Saccharomyces cerevisiae) was “none of them could inhibit” and the “Inhibition of Schizosaccharomyces pombe” value [5] was “none of them could inhibit”.
With N#Cc1cc(-c2ccccc2)[nH]c1-c1nccc2ccccc12 [NSC116640, 2-isoquinolin-1-yl-5-phenyl-1H-pyrrole-3-carbonitrile] the “MNTD90 (maximum non-toxic dose)” value (BHK-21 cells) was 50 µM, the CC50 (in vitro) was 210.7 ± 0.17 µM and the “Concentration required for 80% inhibition of FMDV 3Cpro” value (FMDV 3Cpro) was “more than 40 µM”. For the same compound, the IC50 (FMDV 3Cpro) was 10.8 µM, the Number of viruses (FMDV serotype A (NP05) [6]) was “slightly increased” and the “Virus yield (% of viral copy numbers)” value (FMDV serotype A (NP05) [6]) was 0–10%. The “Reduction of viral titers” value (FMDV serotype A (NP05) [4]) was 1.00–2.27 log TCID50/mL, the EC50 (FMDV serotype A (NP05) [7]) was 2.88 ± 0.17 µM and the “Viral load (viral copy number) reduction” value (FMDV serotype A (NP05) [8]) was “reduce the viral loads in a dose-dependent manner”. For the same compound, the EC50 (FMDV serotype A (NP05) [2]) was 7.27 ± 0.86 µM, the selectivity ratio (FMDV serotype A (NP05) [9]) was 73.2 and the “MNTD90 (maximum non-toxic dose)” value (HEK-293T cells) was 50 µM. The EC50 (FMDV serotype A (NP05) [3]) was 5.74 ± 0.23 µM and the “Potent activity in StopGo luciferase anti-FMDV screen” value (FMDV) was 28.18 µM.
For O=[N+]([O-])c1ccccc1/C=C/C=N/N=C/c1ccccc1O [NSC119805, 2-[(E)-[(E)-[(E)-3-(2-nitrophenyl)prop-2-enylidene]hydrazinylidene]methyl]phenol], the CC50 (in vitro) was 82.45 ± 0.4 µM, the “EC50 Post Entry” value (FMDV serotype A (NP05) [1]) was “I” and the “EC50 Pre-Treatment” value (FMDV serotype A (NP05) [2]) was “I”. The “EC50 Co-Treatment” value (FMDV serotype A (NP05) [3]) was “I”.
In the case of CCN(CC)CCCC(C)NC(=O)c1ccc2c(c1)C(=O)c1ccccc1C2=O (stereo not shown) [NSC331757, N-[5-(diethylamino)pentan-2-yl]-9,10-dioxoanthracene-2-carboxamide;hydrochloride], the CC50 (in vitro) is reported as 62.8 ± 0.87 µM, the “EC50 Post Entry” value (FMDV serotype A (NP05) [1]) is reported as “I” and the “EC50 Pre-Treatment” value (FMDV serotype A (NP05) [2]) is reported as “I”. The “EC50 Co-Treatment” value (FMDV serotype A (NP05) [3]) was “I”.
In the case of Oc1ccccc1-c1nc2c3ccccc3c3ccccc3c2[nH]1 [NSC332670, 6-(1,3-Dihydrophenanthro[9,10-d]imidazol-2-ylidene)cyclohexa-2,4-dien-1-one], the “MNTD90 (maximum non-toxic dose)” value (BHK-21 cells) is reported as 50 µM, the CC50 (in vitro) is reported as 65.82 ± 0.06 µM and the IC50 (FMDV 3Cpro) is reported as 4.21 µM. For the same compound, the inhibition at 10 µM (FMDV 3Cpro; [11]) was about 90%, the inhibition at 40 µM (FMDV 3Cpro; [11]) was 100% and the Inhibition effect (FMDV serotype A (NP05) [6]) was “reduced; also recorded: completely lost”. For the same compound, the Viral inhibition (FMDV serotype A (NP05) [6]) was “great inhibition”, the “Reduction of viral titers” value (FMDV serotype A (NP05) [4]) was 1.17–2.27 log TCID50/mL and the EC50 (FMDV serotype A (NP05) [7]) was 5.92 ± 0.2 µM. For the same compound, the IC50 [10] was 11 µM, the “Viral load (viral copy number) reduction” value (FMDV serotype A (NP05) [8]) was “reduce the viral loads in a dose-dependent manner” and the EC50 (FMDV serotype A (NP05) [2]) was 7.18 ± 0.98 µM. The selectivity ratio (FMDV serotype A (NP05) [9]) was 11.1, the CC50 (HEP-2 cells) was 15.3 µM and the IC50 (carboxypeptidase B) was 1550 µM. The “MNTD90 (maximum non-toxic dose)” value (HEK-293T cells) was 50 µM and the EC50 (FMDV serotype A (NP05) [3]) was 2.04 ± 0.02 µM.
In the case of N#CC(c1ccccc1)N(CCCCCCN(C(=O)c1ccccc1)C(C#N)c1ccccc1)C(=O)c1ccccc1 (stereo not shown) [NSC681744, N-[6-[benzoyl-[cyano(phenyl)methyl]amino]hexyl]-N-[cyano(phenyl)methyl]benzamide], the CC50 (in vitro) is reported as 124 ± 0.5 µM, the Virucidal effect (FMDV serotype A (NP05) [4]) is reported as “good inhibition at 0 min” and the “EC50 Pre-Treatment” value (FMDV serotype A (NP05) [2]) is reported as “I”. For the same compound, the EC50 (FMDV serotype A (NP05) [3]) was 4.83 ± 0.08 µM, the “Inhibition of Saccharomyces cerevisiae” value (Saccharomyces cerevisiae) was “none of them could inhibit” and the “Inhibition of Schizosaccharomyces pombe” value [5] was “none of them could inhibit”.
